SMILES strings stand for the structures.

For the first test, the system named is HBV viral load (viral production from HepAD38 cells). Description: Activity of test compounds on viral production from HepAD38 cells (viral load by qPCR of HBV core sequence). It is filed as cell-based. Conditions: Hepatitis B virus, HePAD38, 120 h, viral load lowering, 5 days, qPCR of supernatant, read-out: VL HepAD38 EC50 range. The method in brief:
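EC50 and CC50 come from four-parameter logistic fits: HBV core DNA in supernatant by TaqMan qPCR against DNA standards, normalised to DMSO controls, and cell viability by CellTiter-Glo. Cells were plated at 50,000/well without tetracycline (2% FBS) and exposed to compounds (highest 10 μM) for 5 days, 37 °C.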
(In qPCR the cycle at which signal appears reflects the starting amount.)
Turning to `CN(C)c1cc(C2(O)CC3CC(c4ncn(C)c4C(=O)Nc4ccc(F)c(Cl)c4)CC3C2)n(C)n1` (centres unmarked) [Example 199, N-(3-Chloro-4-fluorophenyl)-4-(5-(3-(dimethylamino)-1-methyl-1H-pyrazol-5-yl)-5-hydroxyoctahydropentalen-2-yl)-1-methyl-1H-imidazole-5-carboxamide], the EC50 (as a rule, the concentration that produces a half-maximal response) was under 10 nM.

For `Cn1cc(C2(O)CC3CC(c4ncn(C)c4C(=O)Nc4ccc(F)c(Cl)c4)CC3C2)c(C(O)CO)n1` (centres unmarked) [Example 190, N-(3-Chloro-4-fluorophenyl)-4-(5-(3-(1,2-dihydroxyethyl)-1-methyl-1H-pyrazol-4-yl)-5-hydroxyoctahydropentalen-2-yl)-1-methyl-1H-imidazole-5-carboxamide], the EC50 was under 10 nM.

As to `Cn1cnc(C2CC3CC(O)(CS(C)(=O)=O)CC3C2)c1C(=O)Nc1ccc(F)c(Cl)c1` (single isomer, unassigned) [Example 3, N-(3-Chloro-4-fluorophenyl)-4-(5-hydroxy-5-((methylsulfonyl)methyl)octahydropentalen-2-yl)-1-methyl-1H-imidazole-5-carboxamide], the concentration for a half-maximal effect (EC50) is under 10 nM.

As to `CCCCC1(O)CC2CC(c3nc(Cl)n(C)c3C(=O)Nc3ccc(F)c(Cl)c3)CC2C1` (centres unmarked) [Example 113, 4-(5-Butyl-5-hydroxyoctahydropentalen-2-yl)-2-chloro-N-(3-chloro-4-fluorophenyl)-1-methyl-1H-imidazole-5-carboxamide], the EC50 was under 10 nM.

With `Cc1nc(C2CC3CC(O)(c4c(Cl)cnn4C)CC3C2)c(C(=O)Nc2ccc(F)c(Cl)c2)n1C` (centres unmarked) [Example 138, 4-(5-(4-Chloro-1-methyl-1H-pyrazol-5-yl)-5-hydroxyoctahydropentalen-2-yl)-N-(3-chloro-4-fluorophenyl)-1,2-dimethyl-1H-imidazole-5-carboxamide], the EC50 is under 10 nM.

Regarding `O=C(Nc1ccc(F)c(Cl)c1)c1c(C2CC3CC(O)(C(F)(F)F)CC3C2)nc2n1CCC2` (single isomer, unassigned) [Example 34, N-(3-Chloro-4-fluorophenyl)-2-(5-hydroxy-5-(trifluoromethyl)octahydropentalen-2-yl)-6,7-dihydro-5H-pyrrolo[1,2-a]imidazole-3-carboxamide], the EC50 was 10 to 50 nM.

For `Cn1cnc(C2CC3CC(O)(c4cc(OCC(O)CO)nn4C)CC3C2)c1C(=O)Nc1ccc(F)c(Cl)c1` (centres unmarked) [Example 204, N-(3-Chloro-4-fluorophenyl)-4-(5-(3-(2,3-dihydroxypropoxy)-1-methyl-1H-pyrazol-5-yl)-5-hydroxyoctahydropentalen-2-yl)-1-methyl-1H-imidazole-5-carboxamide], the EC50 is under 10 nM.

In the case of `CC(C)Cn1nc(N)c(Cl)c1C1(O)CC2CC(c3ncn(C)c3C(=O)Nc3ccc(F)c(Cl)c3)CC2C1` (centres unmarked) [Example 172, 4-(5-(3-Amino-4-chloro-1-isobutyl-1H-pyrazol-5-yl)-5-hydroxyoctahydropentalen-2-yl)-N-(3-Chloro-4-fluorophenyl)-1-methyl-1H-imidazole-5-carboxamide], the EC50 was under 10 nM.

Regarding `Cn1cc(C2(O)CC3CC(c4ncn(C)c4C(=O)Nc4ccc(F)c(Cl)c4)CC3C2)cn1` (centres unmarked) [Example 121, N-(3-chloro-4-fluorophenyl)-4-(5-hydroxy-5-(1-methyl-1H-pyrazol-4-yl)octahydropentalen-2-yl)-1-methyl-1H-imidazole-5-carboxamide], the EC50 was under 10 nM.

Regarding `O=C(Nc1ccc(F)c(Cl)c1)c1c(C2CC3CC(O)CC3C2)nc2n1CCOC2` (centres unmarked) [Example 82, N-(3-Chloro-4-fluorophenyl)-2-(5-hydroxyoctahydropentalen-2-yl)-5,6-dihydro-8H-imidazo[2,1-c][1,4]oxazine-3-carboxamide], the EC50 was in the range of 50 to 500 nM.

Still in this test, the particulars now being: viral load lowering, 5 days, qPCR of supernatant, read-out: VL HepAD38 EC50 range.
As for `O=C(Nc1ccc(F)c(Cl)c1)c1c(C2CC3CC(O)CC3C2)nc2n1CCC2` (single isomer, unassigned) [Example 33, N-(3-Chloro-4-fluorophenyl)-2-(5-hydroxyoctahydropentalen-2-yl)-6,7-dihydro-5H-pyrrolo[1,2-a]imidazole-3-carboxamide], the EC50 was under 10 nM.

The values above are taken from US12655130B2 (ASSEMBLY BIOSCIENCES, INC., priority 2020, dated 2026).
